Experimental data published in patent US12662507B2, “Cytosine-type bridged nucleoside amidite crystals and method for producing same” (Yamasa Corporation, priority 2020, dated 2026).

Assay: Stability test: storage at 50° C. in tightly sealed glass vial, HPLC purity
Format: physicochemical
Method: As used herein, the term “decomposition degree” is defined as a value obtained by subtracting a […] when the stability test is performed for a certain period of time under the following conditions. The purity can be determined by HPLC. A higher decomposition degree means that the decomposition progressed and the purity decreased.
(§1) • Temperature: 50° C.; • Storage conditions: 20 mg of crystal is placed in a glass vial and stored in a tightly sealed state; (HPLC Conditions) • Column: YMC-Triart C18, 150×4.6 mm I.D. (manufactured by YMC); • Eluent: 5 mM triethylammonium acetate (pH 7.0) containing 80 vol % acetonitrile; and • Detection method: detection by UV 280 nm.
as §1, with “each of crystals A to C or amorphous form was” for “crystal is”, “state; and • Sampling time: after 1, 2, 3, 4, 6, and 20 (days), each specimen was sampled and subjected to HPLC analysis;” for “state;”, “YMC)” for “YMC);”
The leftmost column in the table indicates the number of elapsed days, and the column “Example 1 (Crystal A)” indicates the HPLC purity of the crystal A of the 5-methylcytosine-type bridged nucleoside amidite obtained in Example 1 (R^1=a benzamido group, R^2=a methyl group, R^3=a dimethoxytrityl group) after the corresponding number of elapsed days, and the column “Example 2 (crystal B)” indicates the HPLC purity of the crystal B of the 5-methylcytosine-type bridged nucleoside amidite obtained in Example 2 (R^1=a benzamido group, R^2=a methyl group, R^3=a dimethoxytrityl group) after the corresponding number of elapsed days, and the column “Example 3 (Crystal C) indicates the HPLC purity of the crystal C of 5-methylcytosine-type bridged nucleoside amidite obtained in Example 3 (R^1=a benzamido group, R^2=a methyl group, R^3=a dimethoxytrityl group) after the corresponding number of elapsed days, and the column “Control” indicates the HPLC purity of the amorphous form used as a control after the corresponding number of elapsed days. In the table, the cells marked by “-” indicate that no measurement was performed.

[1] = HPLC purity on day 0 minus HPLC purity after 20 days at 50° C.
[2] = after 1 day at 50° C., sealed glass vial
[3] = after 2 days at 50° C., sealed glass vial
[4] = after 3 days at 50° C., sealed glass vial
[5] = after 6 days at 50° C., sealed glass vial
[6] = after 20 days at 50° C., sealed glass vial
[7] = day 0 (start of stability test at 50° C.)
[8] = after 4 days at 50° C., sealed glass vial

| SMILES | Decomposition Degree [1] | HPLC purity [2] [%] | HPLC purity [3] [%] | HPLC purity [4] [%] | HPLC purity [5] [%] | HPLC purity [6] [%] | HPLC purity [7] [%] | Decomposition Degree (stored at 50° C. for 20 days, in HPLC purity) [%] | HPLC purity [8] [%] |
| --- | --- | --- | --- | --- | --- | --- | --- | --- | --- |
| COc1ccc(C(OCC23COC(C(n4cc(C)c(NC(=O)c5ccccc5)nc4=O)O2)C3OP(OCCC#N)N(C(C)C)C(C)C)(c2ccccc2)c2ccc(OC)cc2)cc1 (centres unmarked) [Control, N^4-benzoyl-5′-O-(4,4′-dimethoxytrityl)-2′-O-4′-C-methylene-5-methylcytidine-3′-O—[O-(2-cyanoethyl)-N,N-diisopropylphosphoramidite], reference compound] | 6.6 Δ % | 98.2 | 97.9 | 97.9 | 96.9 | 92.1 | 98.7 | 6.6 | – |
| COc1ccc(C(OCC23COC(C(n4cc(C)c(NC(=O)c5ccccc5)nc4=O)O2)C3OP(OCCC#N)N(C(C)C)C(C)C)(c2ccccc2)c2ccc(OC)cc2)cc1 (centres unmarked) [Example 1, N^4-benzoyl-5′-O-(4,4′-dimethoxytrityl)-2′-O-4′-C-methylene-5-methylcytidine-3′-O—[O-(2-cyanoethyl)-N,N-diisopropylphosphoramidite]] | 0.7 Δ % | 98.4 | 98.1 | 98.3 | 98.1 | 98.1 | 98.8 | – | – |
| COc1ccc(C(OCC23COC(C(n4cc(C)c(NC(=O)c5ccccc5)nc4=O)O2)C3OP(OCCC#N)N(C(C)C)C(C)C)(c2ccccc2)c2ccc(OC)cc2)cc1 (centres unmarked) [Example 2, N^4-benzoyl-5′-O-(4,4′-dimethoxytrityl)-2′-O-4′-C-methylene-5-methylcytidine-3′-O—[O-(2-cyanoethyl)-N,N-diisopropylphosphoramidite]] | 0.4 Δ % | 98.7 | 98.6 | – | 98.5 | 98.3 | 98.7 | – | 98.6 |
| COc1ccc(C(OCC23COC(C(n4cc(C)c(NC(=O)c5ccccc5)nc4=O)O2)C3OP(OCCC#N)N(C(C)C)C(C)C)(c2ccccc2)c2ccc(OC)cc2)cc1 (centres unmarked) [Example 3, N^4-benzoyl-5′-O-(4,4′-dimethoxytrityl)-2′-O-4′-C-methylene-5-methylcytidine-3′-O—[O-(2-cyanoethyl)-N,N-diisopropylphosphoramidite]] | 0.5 Δ % | 98.7 | 98.6 | – | 98.5 | 98.1 | 98.6 | – | 98.5 |
